In patent EP4813980A1, “EP300/CBP REGULATOR, AND PREPARATION METHOD THEREFOR AND USE THEREOF” (Miracure Biotechnology Limited, priority 2023, dated 2025):

Columns and labels:
vCap cells = test: Cell growth inhibition, CellTiter-Glo, 72 h; assay type: cell-based; settings: 72 h culture, mean of N=2
Procedure: (§1) 22RV1, vCap, MM1S and OPM-2 cells were cultured in RPMI-1640 medium (10% fetal bovine serum and 100 units of penicillin/streptomycin dual-antibody per mL were added to RPMI-1640) in a cell incubator at 37°C with 5% CO2, respectively. Cells in logarithmic growth phase were seeded into 96-well cell culture plates at 5×10^3 cells/100 µL/well and cultured overnight. Active compounds dissolved in DMSO at different concentrations were added with a final concentration of 0.5% DMSO. 1% Tween 20 was used as positive control and 0.5% DMSO was used as negative control. After 72 h of culture, an equal volume of CellTiter-Glo was added to each well, mixed by shaking for 2 min, and left standing at room temperature for 10 min. […] signal values were read with a microplate reader. Data were analyzed and graphs were generated using Prism 7.0. The values shown are mean ± SEM (N=2). […] The formula for inhibition rate is as follows: % Inhibition = (Icompound−IZPE)/(IHPE−IZPE) × 100 [formula]
(§2) The X-axis is compound concentration (nM), and the Y-axis is % Inhibition.

22RV1 cells = test: Cell growth inhibition, CellTiter-Glo, 72 h; assay type: cell-based; settings: 72 h culture, mean of N=2
Procedure: as §1, §2

Row | Molecule | IC50 (vCap cells) [nM] | IC50 (22RV1 cells) [nM] | IC50 (22RV1 cells; Homo sapiens) [nM] | IC50 (vCap cells; Homo sapiens) [nM]
1 | 3-{5-[8-(4-{2-acetyl-7-[7-(difluoromethyl)-6-(1-methylpyrazol-4-yl)-3,4-dihydro-2H-quinolin-1-yl]-1,3-dihydroisoindol-5-yl}piperidin-1-yl)-8-oxo-1-yn-1-yl]-3-methyl-2-oxo-1,3-benzodiazol-1-yl}piperidine-2,6-dione [Compound 2030] | 0.1 | 0.34 | – | –
2 | C=CC(=O)N1CCC(c2cc3c(c(N4CCCc5cc(-c6cnn(C)c6)c(C(F)F)cc54)c2)CN(C(=O)NC)CC3)CC1 [Compound 1346, 6-(1-acryloylpiperidin-4-yl)-8-(7-(difluoromethyl)-6-(1-methyl-1H-pyrazol-4-yl)-3,4-dihydroquinolin-1(2H)-yl)-N-methyl-3,4-dihydroisoquinoline-2(1H)-carboxamide] | – | – | 81800 | –
3 | C=CS(=O)(=O)N[C@H]1CC[C@H](n2c([C@@H]3CCCC(=O)N3c3ccc(F)c(F)c3)nc3cc(-c4c(C)noc4C)ccc32)CC1 [Compound 1370] | – | – | 1610 | –
4 | C=CC(=O)NC1CCC(n2c([C@@H]3CCCC(=O)N3c3ccc(F)c(F)c3)nc3cc(-c4c(C)noc4C)ccc32)CC1 (some centres unmarked) [Compound 1371] | – | 2090 | – | –
5 | CC#CC(=O)N1CCC(n2nc(N3CCCc4cc(-c5cnn(C)c5)c(C(F)F)cc43)c3c2CCN(C(=O)NC)C3)CC1 [Compound 1376] | – | – | 2650 | –
6 | CC(=O)N1Cc2cc(C3CCC(N4C(=O)C=CC4=O)CC3)cc(N3CCCc4cc(-c5cnn(C)c5)c(C(F)F)cc43)c2C1 (centres unmarked) [Compound 1385, 1-(4-{2-acetyl-7-[7-(difluoromethyl)-6-(1-methylpyrazol-4-yl)-3,4-dihydro-2H-quinolin-1-yl]-1,3-dihydroisoindol-5-yl}cyclohexyl)pyrrole-2,5-dione] | – | – | 358 | 144
7 | CC(=O)N1Cc2cc(C3CCN(CCN4CCOC(CNc5cccc6c5C(=O)N(C5CCC(=O)NC5=O)C6=O)C4)CC3)cc(N3CCCc4cc(-c5cnn(C)c5)c(C(F)F)cc43)c2C1 (centres unmarked) [Compound 2001] | – | – | 0.06 | 0.154
8 | CC(=O)N1Cc2cc(C3CCN(Cc4ccc(CCOc5cccc6c5CN(C5CCC(=O)NC5=O)C6=O)cc4)CC3)cc(N3CCCc4cc(-c5cnn(C)c5)c(C(F)F)cc43)c2C1 (centres unmarked) [Compound 2003] | – | – | 0.69 | 0.19
9 | CC(=O)n1cc2cc(C3CCN(C(=O)CCCCCCCNc4ccc5c(c4)n(C)c(=O)n5C4CCC(=O)NC4=O)CC3)cc(N3CCCc4cc(-c5cnn(C)c5)c(C(F)F)cc43)c2c1 (centres unmarked) [Compound 2004, 3-[5-[[8-[4-[2-acetyl-7-[7-(difluoromethyl)-6-(1-methylpyrazol-4-yl)-3,4-dihydro-2H-quinolin-1-yl]isoindol-5-yl]piperidin-1-yl]-8-oxooctyl]amino]-3-methyl-2-oxobenzoimidazol-1-yl]piperidine-2,6-dione] | – | – | 0.03 | 0.12
10 | CC(=O)N1Cc2cc(C3CCN(CCN4CCC(CCc5cccc6c5C(=O)N(C5CCC(=O)NC5=O)C6=O)CC4)CC3)cc(N3CCCc4cc(-c5cnn(C)c5)c(C(F)F)cc43)c2C1 (centres unmarked) [Compound 2005] | – | – | 7.7 | –
11 | CC(=O)N1Cc2cc(C3CCN(C(=O)CCCCCCNc4cccc5c4n(C)c(=O)n5C4CCC(=O)NC4=O)CC3)cc(N3CCCc4cc(-c5cnn(C)c5)c(C(F)F)cc43)c2C1 (centres unmarked) [Compound 2007] | – | – | 0.04 | 0.01
12 | CC(=O)N1Cc2cc(C3CCN(C(=O)CCCCCCCCNc4ccc5c(c4)n(C)c(=O)n5C4CCC(=O)NC4=O)CC3)cc(N3CCCc4cc(-c5cnn(C)c5)c(C(F)F)cc43)c2C1 (centres unmarked) [Compound 2009] | – | – | 0.04 | 0.01
13 | CNC(=O)N1CCc2cc(C3CCN(CCN4CCOC(CNc5cccc6c5C(=O)N(C5CCC(=O)NC5=O)C6=O)C4)CC3)cc(N3CCCc4cc(-c5cnn(C)c5)c(C(F)F)cc43)c2C1 (centres unmarked) [Compound 2010] | – | – | 0.08 | 0.193
14 | CNC(=O)N1CCc2cc(C3CCN(Cc4ccc(CCOc5cccc6c5CN(C5CCC(=O)NC5=O)C6=O)cc4)CC3)cc(N3CCCc4cc(-c5cnn(C)c5)c(C(F)F)cc43)c2C1 (centres unmarked) [Compound 2012] | – | – | 0.62 | 2.31
15 | CNC(=O)N1CCc2cc(C3CCN(C(=O)CCCCCCCNc4ccc5c(c4)n(C)c(=O)n5C4CCC(=O)NC4=O)CC3)cc(N3CCCc4cc(-c5cnn(C)c5)c(C(F)F)cc43)c2C1 (centres unmarked) [Compound 2013] | – | – | 0.01 | 0.449
16 | CNC(=O)N1CCc2cc(C3CCN(CCN4CCC(CCc5cccc6c5C(=O)N(C5CCC(=O)NC5=O)C6=O)CC4)CC3)cc(N3CCCc4cc(-c5cnn(C)c5)c(C(F)F)cc43)c2C1 (centres unmarked) [Compound 2014, 8-(7-(difluoromethyl)-6-(1-methylpyrazol-4-yl)-3,4-dihydro-2H-quinolin-1-yl)-6-[1-[2-[4-[2-[2-(2,6-dioxo-3-piperidinyl)-1,3-dioxoisoindolin-4-yl]ethyl]-1-piperidinyl]ethyl]-4-piperidinyl]-N-methyl-3,4-dihydro-1H-isoquinoline-2-carboxamide] | – | – | – | 11
17 | CNC(=O)N1CCc2cc(C3CCN(Cc4ccc(COc5cccc6c5CN(C5CCC(=O)NC5=O)C6=O)cc4)CC3)cc(N3CCCc4cc(-c5cnn(C)c5)c(C(F)F)cc43)c2C1 (centres unmarked) [Compound 2015, 8-(7-(difluoromethyl)-6-(1-methyl-1H-pyrazol-4-yl)-3,4-dihydroquinolin-1(2H)-yl)-6-(1-(4-(((2-(2,6-dioxopiperidin-3-yl)-1-oxoisoindolin-4-yl)oxy)methyl)benzyl)piperidin-4-yl)-N-methyl-3,4-dihydroisoquinoline-2(1H)-carboxamide] | – | – | 0.05 | 0.01
18 | CNC(=O)N1CCc2cc(C3CCN(C(=O)CCCCCCNc4cccc5c4n(C)c(=O)n5C4CCC(=O)NC4=O)CC3)cc(N3CCCc4cc(-c5cnn(C)c5)c(C(F)F)cc43)c2C1 (centres unmarked) [Compound 2016, 8-[7-(difluoromethyl)-6-(1-methylpyrazol-4-yl)-3,4-dihydro-2H-quinolin-1-yl)-6-[1-[7-[[1-(2,6-dioxo-3-piperidinyl)-3-methyl-2-oxobenzoimidazol-4-yl]amino]heptanoyl]-4-piperidinyl]-N-methyl-3,4-dihydro-1H-isoquinoline-2-carboxamide] | – | – | 0.01 | < 0.005
19 | CNC(=O)N1Cc2cc(C3CCN(C(=O)CCOCCOCCOCCOCCNc4ccc5c(c4)C(=O)N(C4CCC(=O)NC4=O)C5=O)CC3)cc(N3CCCc4cc(-c5cnn(C)c5)c(C(F)F)cc43)c2C1 (centres unmarked) [Compound 2023] | – | – | 434 | –
20 | COC(=O)N1CCc2cc(C3CCN(C(=O)CCCCCCCNc4ccc5c(c4)C(=O)N(C4CCC(=O)NC4=O)C5=O)CC3)cc(N3CCCc4cc(-c5cnn(C)c5)c(C(F)F)cc43)c2C1 (centres unmarked) [Compound 2026, methyl 8-[7-(difluoromethyl)-6-(1-methylpyrazol-4-yl)-3,4-dihydro-2H-quinolin-1-yl]-6-[1-[8-[[2-(2,6-dioxo-3-piperidinyl)-1,3-dioxoisoindolin-5-yl]amino]octanoyl]-4-piperidinyl]-3,4-dihydro-1H-isoquinoline-2-carboxylate] | – | – | 22.4 | –
21 | CC(=O)N1Cc2cc(C3CCN(Cc4ccc(CCOc5cccc6c5CN(C5CCC(=O)NC5=O)C6=O)nc4)CC3)cc(N3CCCc4cc(-c5cnn(C)c5)c(C(F)F)cc43)c2C1 (centres unmarked) [Compound 2035, 3-[4-(2-{5-[(4-{2-acetyl-7-[7-(difluoromethyl)-6-(1-methylpyrazol-4-yl)-3,4-dihydro-2H-quinolin-1-yl]-1,3-dihydroisoindol-5-yl}piperidin-1-yl)methyl]pyridin-2-yl}ethoxy)-1-oxo-3H-isoindol-2-yl]piperidine-2,6-dione] | – | – | 2.6 | –
22 | CC(=O)N1Cc2cc(C3CCN(C(=O)Cn4cc(COc5cccc6c5CN(C5CCC(=O)NC5=O)C6=O)nn4)CC3)cc(N3CCCc4cc(-c5cnn(C)c5)c(C(F)F)cc43)c2C1 (centres unmarked) [Compound 2046] | – | – | 14 | –
23 | CC(=O)N1Cc2cc(C3CCN(CC4CCN(c5cccc6c5CN(C5CCC(=O)NC5=O)C6=O)CC4)CC3)cc(N3CCCc4cc(-c5cnn(C)c5)c(C(F)F)cc43)c2C1 (centres unmarked) [Compound 2047] | – | – | > 10000 | –
24 | CC(=O)N1Cc2cc(C3CCN(C(=O)CN4Cc5cc6c(cc5C4)C(=O)N(C4CCC(=O)NC4=O)C6=O)CC3)cc(N3CCCc4cc(-c5cnn(C)c5)c(C(F)F)cc43)c2C1 (centres unmarked) [Compound 2050] | – | – | 5.25 | –
25 | CC(=O)N1Cc2cc(C3CCN(CCN4Cc5cc6c(cc5C4)C(=O)N(C4CCC(=O)NC4=O)C6=O)CC3)cc(N3CCCc4cc(-c5cnn(C)c5)c(C(F)F)cc43)c2C1 (centres unmarked) [Compound 2059] | – | – | 9.42 | –
26 | CC(=O)N1Cc2cc(C3CCN(CC4CCN(CCNc5cccc6c5CN(C5CCC(=O)NC5=O)C6=O)CC4)CC3)cc(N3CCCc4cc(-c5cnn(C)c5)c(C(F)F)cc43)c2C1 (centres unmarked) [Compound 2060] | – | – | 6.8 | –
27 | CC(=O)N1Cc2cc(C3CCN(CCN4CCC(CNc5cccc6c5CN(C5CCC(=O)NC5=O)C6=O)CC4)CC3)cc(N3CCCc4cc(-c5cnn(C)c5)c(C(F)F)cc43)c2C1 (centres unmarked) [Compound 2061] | – | – | 3.48 | –
28 | CC(=O)N1Cc2cc(C3CCN(CC4CCN(CCOc5ccc(N6CCC(=O)NC6=O)cc5)CC4)CC3)cc(N3CCCc4cc(-c5cnn(C)c5)c(C(F)F)cc43)c2C1 [Compound 2072] | – | – | 2020 | –
29 | CC(=O)N1Cc2cc(C3CCC(N(C)C4CCN(c5ccc6c(c5)CN(C5CCC(=O)NC5=O)C6=O)CC4)CC3)cc(N3CCCc4cc(-c5cnn(C)c5)c(C(F)F)cc43)c2C1 (centres unmarked) [Compound 2079, 3-(5-((4-((2-acetyl-7-(7-(difluoromethyl)-6-(1-methyl-1H-pyrazol-4-yl)-3,4-dihydroquinolin-1(2H)-yl)isoindolin-5-yl)cyclohexyl)(methyl)amino)piperidin-1-yl)-1-oxoisoindolin-2-yl)piperidine-2,6-dione] | – | – | 3.76 | –
